From article PMC6737244, “Cathelicidin Peptides Restrict Bacterial Growth via Membrane Perturbation and Induction of Reactive Oxygen Species” (mBio, 2019)
Ends that are not written are not given here.

Assays:
[1] = test system: Escherichia coli ATCC 35218; format: cell-based
Procedure: (§1) MICs were determined by using the broth microdilution method based on the general recommendations of the Clinical and Laboratory Standards Institute (CLSI). Bacteria were grown in CAMHB overnight. They were then diluted into fresh medium the following morning and grown to early log phase. The cultures were then diluted to approximately 5 × 10^5 CFU ml^−1, and 100 μl was added to sterile 96-well polypropylene microtiter plates (Corning, NY, USA) preloaded with twofold dilutions of antimicrobial peptides. […] All MIC assays were determined from at least three independent assays.

[2] = test system: Pseudomonas aeruginosa PAO1; format: cell-based
Procedure: as §1

[3] = test system: Pseudomonas aeruginosa ATCC 27853; format: cell-based
Procedure: as §1

[4] = test system: Klebsiella pneumoniae ATCC 700603; format: cell-based
Procedure: as §1

[5] = test system: Pseudomonas aeruginosa OC4083; format: cell-based
Procedure: as §1

[6] = test system: Enterobacter cloacae OC4092; format: cell-based
Procedure: as §1

[7] = test system: Klebsiella pneumoniae 262 (NDM1+); format: cell-based
Procedure: as §1

[8] = test system: Klebsiella pneumoniae 88 (NDM1+); format: cell-based
Procedure: as §1

[9] = test system: Enterobacter cloacae OC4080; format: cell-based
Procedure: as §1

Escherichia coli OC4075 = format: cell-based
Procedure: as §1

[10] = test system: Klebsiella pneumoniae OC8893; format: cell-based
Procedure: as §1

[11] = test system: Klebsiella pneumoniae OC4110; format: cell-based
Procedure: as §1

Escherichia coli MC4100a = format: cell-based
Procedure: as §1

[12] = test system: Escherichia coli ATCC 25922; format: cell-based
Procedure: as §1

Escherichia coli UTI89 = format: cell-based
Procedure: as §1

Klebsiella pneumoniae C2 = format: cell-based
Procedure: as §1

Gram-positive bacteria = conditions: cited from earlier work
Text: The human cathelicidin LL-37 has important roles in modulating inflammatory responses. […] Perhaps because they are released in response to bacterial infection and tissue injuries, LL-37 and other cathelicidins can promote wound healing and reduce fibrosis ([8][–][10]). All of these desirable activities have generated significant interest in developing cathelicidins to treat bacterial infection and injuries, however, c ...

GRFKRFRKKLKKLFKKLSPVIPLLHLG [BMAP-27B, reference compound]
MIC [1]: 4 µM
MIC [2]: 4 µM
MIC [3]: 4 µM
MIC [4]: 4 µM
MIC [5]: 4 µM
MIC [6]: 4 µM
MIC [7]: 4 µM
MIC [8]: 4 µM
MIC [9]: 4 µM
MIC (Escherichia coli OC4075): 4 µM
MIC [10]: 8 µM
MIC [11]: 8 µM
MIC (Escherichia coli MC4100a): 4 µM
MIC [12]: 4 µM
MIC (Escherichia coli UTI89): 4 µM
MIC (Klebsiella pneumoniae C2): 4 µM
Fold-higher concentration needed to reach the MICs for Gram-positive bacteria (Gram-positive bacteria): ca. 10 fold
